In patent US10093623B2, “Cyclic amides as MetAP-2 inhibitors” (MERCK PATENT GmbH, priority 2012, dated 2018) one finds IC50 data, which are given here for 26 compounds.

Bounds are passed on as bounds.

This assay concerns the target MetAP-2 (Homo sapiens, UniProt P50579). As to the kind of experiment: MetAP-2 activity measurement (coupled enzymatic reactions, Met-Arg-Ser substrate, dianisidine detection at 450 nm). It counts as biochemical. To be noted: Inhibition of MetAP-2; read-out: IC50 enzyme. Summed up:
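Rate read from the linear part of the 450 nm absorbance trace. Dianisidine oxidation by peroxidase reports H2O2 made when amino acid oxidase acts on methionine cleaved from MAS tripeptide, one mol dye per mol Met; extinction coefficient gives molar activity.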

Sequence of MetAP-2 (P50579 whole entry, species assumed): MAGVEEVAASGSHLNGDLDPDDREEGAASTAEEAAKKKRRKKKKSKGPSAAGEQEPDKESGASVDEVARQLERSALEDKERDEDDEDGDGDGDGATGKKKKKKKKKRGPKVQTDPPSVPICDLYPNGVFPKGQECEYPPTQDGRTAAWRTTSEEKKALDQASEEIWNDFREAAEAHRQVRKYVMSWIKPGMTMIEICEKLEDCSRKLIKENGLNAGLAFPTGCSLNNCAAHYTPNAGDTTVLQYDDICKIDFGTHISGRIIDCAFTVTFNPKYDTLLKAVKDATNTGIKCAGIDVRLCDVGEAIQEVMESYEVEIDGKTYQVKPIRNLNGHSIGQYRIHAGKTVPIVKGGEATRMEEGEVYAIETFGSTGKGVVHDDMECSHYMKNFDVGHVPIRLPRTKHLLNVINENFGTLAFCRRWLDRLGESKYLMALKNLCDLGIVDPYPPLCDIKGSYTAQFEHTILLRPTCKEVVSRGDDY

As a reminder, the IC50 is the midpoint of a concentration-inhibition curve. As for `Cc1noc(-c2cc3cc(N4CC[C@](O)(C(=O)NCc5cc(F)cc(Cl)c5)C4=O)ccc3[nH]2)n1` [B135, N-(3-Chloro-5-fluorobenzyl)-(S)-3-hydroxy-1-[2-(3-methyl-1,2,4-oxadiazol-5-yl)-1H-indol-5-yl]-2-oxopyrrolidine-3-carboxamide], the IC50 fell in the range of 0.01 to 1 µM.

For the compound `O=C(NCc1cc(F)cc(Cl)c1)C1(O)CCN([C@@H]2CCNC2)C1=O` (stereo partly drawn) [A131, N-(3-Chloro-5-fluorobenzyl)-(R)-3-hydroxy-2-oxo-[1,3′]bipyrrolidinyl-3-carboxamide], the IC50 was above 10 µM. For the compound `CCS(=O)(=O)N[C@H]1CC[C@H](N2CCC(O)(C(=O)NCc3cc(F)cc(Cl)c3)C2=O)CC1` (some centres unmarked) [A124, N-(3-Chloro-5-fluorobenzyl)-1-(4-ethanesulfonylamino-cyclohexyl)-3-hydroxy-2-oxo-pyrrolidine-3-carboxamide], the IC50 fell in the range of 1 to 10 µM. With `NC(=O)c1cc2cc(N3CC[C@](O)(C(=O)NCc4cc(F)cc(Cl)c4)C3=O)ccc2[nH]1` [B78, 5-[(S)-3-(3-Chloro-5-fluorobenzylcarbamoyl)-3-hydroxy-2-oxopyrrolidin-1-yl]-1H-indole-2-carboxamide] the figure was 0.01 to 1 µM; with `CC(=O)N1C[C@@H]2[C@H](C1)[C@H]2N1CCC(O)(C(=O)NCc2cc(F)cc(Cl)c2)C1=O` (stereo partly drawn) [A231, N-(3-Chloro-5-fluorobenzyl)-1-((1S,5R,6S)-3-acetyl-3-aza-bicyclo[3.1.0]hex-6-yl)-3-hydroxy-2-oxopyrrolidine-3-carboxamide], 1 to 10 µM; with `CCOC(=O)c1cc2cc(N3CCC(O)(C(=O)NCc4cc(F)cc(Cl)c4)C3=O)ccc2[nH]1` (centres unmarked) [A205, Ethyl 5-[3-(3-chloro-5-fluorobenzylcarbamoyl)-3-hydroxy-2-oxopyrrolidin-1-yl]-1H-indol-2-carboxylate], 0.01 to 1 µM. Regarding `O=C(NCc1cccc(F)c1)[C@@]1(O)CCCN(CC2CCCCC2)C1=O` [A256, N-(3-fluorobenzyl)-(S)-1-cyclohexylmethyl-3-hydroxy-2-oxopiperidine-3-carboxamide], the IC50 is 0.01 to 1 µM.

Turning to `O=C(NCc1cc(F)cc(Cl)c1)C1(O)CCN(Cc2ccccc2)C1=O` (centres unmarked) [A136, N-(3-Chloro-5-fluorobenzyl)-1-benzyl-3-hydroxy-2-oxo-pyrrolidine-3-carboxamide], the IC50 lay in the range of 0.01 to 1 µM. Take `NC(=O)Cn1cc(N2CC[C@](O)(C(=O)NCc3cc(F)cc(Cl)c3)C2=O)cn1` [B119, N-(3-Chloro-5-fluorobenzyl)-(S)-1-(1-carbamoylmethyl-1H-pyrazol-4-yl)-3-hydroxy-2-oxo-pyrrolidine-3-carboxamide]: the 50% inhibitory concentration (IC50) lay within 0.01 to 1 µM. Consider `Cn1nccc1CN1CCC(O)(C(=O)NCc2cc(F)cc(Cl)c2)C1=O` (centres unmarked) [A276, N-(3-Chloro-5-fluorobenzyl)-3-hydroxy-1-(2-methyl-2H-pyrazol-3-ylmethyl)-2-oxopyrrolidine-3-carboxamide], for which the IC50 fell in the range of 1 to 10 µM. Consider `O=C1N(Cc2ccccc2)CCC[C@]1(O)CNCc1cc(F)cc(Cl)c1` [B54, (S)-1-Benzyl-3-[(3-chloro-5-fluorobenzylamino)methyl]-3-hydroxypiperidin-2-one], for which the half-inhibitory concentration (IC50) was in the range of 0.01 to 1 µM.

Regarding `O=C(NCc1cc(F)cc(Cl)c1)[C@]1(O)CCN(c2ccc3cc[nH]c3c2)C1=O` [A154, N-(3-Chloro-5-fluorobenzyl)-(R)-3-hydroxy-1-(1H-indol-6-yl)-2-oxopyrrolidine-3-carboxamide], the IC50 is above 10 µM.

With `O=C1CCc2cc(NC(=O)C3CCN(c4ccc5c(c4)CCC(=O)N5)C3=O)ccc2N1` (centres unmarked) [A158, N-(2-Oxo-1,2,3,4-tetrahydro-quinolin-6-yl)-2-oxo-1-(2-oxo-1,2,3,4-tetrahydroquinolin-6-yl)-pyrrolidine-3-carboxamide], the IC50 was above 10 µM. With `NC(=O)c1cc(N2CCC(O)(C(=O)NCc3cc(F)cc(Cl)c3)C2=O)ccc1F` (centres unmarked) [B28, N-(3-Chloro-5-fluorobenzyl)-1-(3-carbamoyl-4-fluorophenyl)-3-hydroxy-2-oxopyrrolidine-3-carboxamide] the figure was 0.01 to 1 µM; with `O=C(NCc1ccccn1)[C@]1(O)CCCN(Cc2cccc(F)c2F)C1=O` [A260, N-(Pyridin-2-ylmethyl)-(R)-1-(2,3-difluorobenzyl)-3-hydroxy-2-oxopiperidine-3-carboxamide], above 10 µM.

`Cc1nc2cc(N3CCC(O)(C(=O)NCc4cc(F)cc(Cl)c4)C3=O)cnc2[nH]1` (centres unmarked) [B33, N-(3-Chloro-5-fluorobenzyl)-3-hydroxy-1-(2-methyl-3H-imidazo[4,5-b]pyridin-6-yl)-2-oxopyrrolidine-3-carboxamide]: the IC50 lay in the range of 0.01 to 1 µM. In the case of `COc1ccc(N2CCC(O)(C(=O)NCc3cc(F)cc(Cl)c3)C2=O)cn1` (centres unmarked) [A138, N-(3-Chloro-5-fluorobenzyl)-3-hydroxy-1-(6-methoxypyridin-3-yl)-2-oxopyrrolidine-3-carboxamide] it was 0.01 to 1 µM. In the case of `N#Cc1ccc(N2CC[C@](O)(C(=O)NCc3cc(F)cc(Cl)c3)C2=O)cn1` [A97, N-(3-Chloro-5-fluorobenzyl)-(S)-1-(6-cyanopyridin-3-yl)-3-hydroxy-2-oxopyrrolidine-3-carboxamide] it was 0.01 to 1 µM. With `O=C(CNC(=O)[C@@]1(O)CCN(c2ccccc2)C1=O)N1CCOCC1` [A62, N-(2-Morpholin-4-yl-2-oxoethyl)-(S)-3-hydroxy-2-oxo-1-phenyl-pyrrolidine-3-carboxamide] the figure was above 10 µM.

As to `CS(=O)(=O)N1CC[C@@H](N2CCC(O)(C(=O)NCc3cc(F)cc(Cl)c3)C2=O)C1` (stereo partly drawn) [A292, N-(3-Chloro-5-fluorobenzyl)-(R)-3-hydroxy-1′-methanesulfonyl-2-oxo[1,3′]bipyrrolidinyl-3-carboxamide], the concentration for half-maximal inhibition (IC50) is 1 to 10 µM. For `CN(CCO)C(=O)c1cccc(N2CC[C@@](O)(C(=O)NCc3cc(F)cc(Cl)c3)C2=O)c1` [A102, N-(3-Chloro-5-fluorobenzyl)-(R)-3-hydroxy-1-{3-[(2-hydroxy-ethyl)methylcarbamoyl]phenyl}-2-oxopyrrolidine-3-carboxamide], the half-maximal inhibitory concentration (IC50) lay within 1 to 10 µM. Take `O=C(NC1CC1)c1cccc(N2CC[C@](O)(C(=O)NCc3cc(F)cc(Cl)c3)C2=O)c1` [A75, N-(3-Chloro-5-fluorobenzyl)-(S)-1-(3-cyclopropylcarbamoylphenyl)-3-hydroxy-2-oxopyrrolidine-3-carboxamide]: the IC50 fell in the range of 0.01 to 1 µM. For `O=C(NCCc1ccccc1F)[C@@]1(O)CCN(c2ccc3[nH]ccc3c2)C1=O` [B14, (S)-3-hydroxy-1-(1H-indol-5-yl)-2-oxopyrrolidine-3-carboxylic acid[2-(2-fluorophenyl)ethyl]-amide], the IC50 lay in the range of 0.01 to 1 µM.

Turning to `O=C(NCCc1cccc(F)c1)[C@@]1(O)CCN(c2ccc3[nH]ccc3c2)C1=O` [B10], the IC50 lay within 0.01 to 1 µM. In the case of `CC(=O)Nc1ccc(N2CCC(O)(C(=O)NCCc3cccc(F)c3)C2=O)cn1` (centres unmarked) [A174, N-[2-(3-Fluorophenyl)ethyl]-1-(6-acetylaminopyridin-3-yl)-3-hydroxy-2-oxopyrrolidine-3-carboxamide] it was 0.01 to 1 µM; in that of `O=C1N(Cc2cccc(F)c2F)CCC[C@@]1(O)CNCc1cccc(F)c1` [B23, (R)-1-(2,3-Difluorobenzyl)-3-[(3-fluorobenzylamino)methyl]-3-hydroxypiperidin-2-one], 1 to 10 µM.
